Experimental data taken from patent US20210023065A1, “AMPHIPHILIC THIOL COMPOUNDS AND USES THEREOF” (THE REGENTS OF THE UNIVERSITY OF CALIFORNIA, priority 2018, published 2021).

Key:
Type in all cases: cell-based
endogenous HRas = target: T1, endogenous HRas (Homo sapiens, UniProt P01112); experiment: Acyl resin-assisted capture detection of HRas palmitoylation in HeLa cells; details: for depalmitoylation of HRas: HeLa cells, 20 min, 1 at 1.25 μmol/10^7 cells, same experiments with TCEP alone or compound 2
T1 construct: endogenous in cells; host or cells: HeLa
Procedure: HeLa cells were grown to confluency in 10 cm plates. Stock solutions of compounds were prepared in DMSO as before and diluted to the final indicated concentration in 5.5 mL of OptiMEM media before adding to cells. Cells were incubated at 37° C. for 20 min and then media removed and 3 mL of HBSS added to each plate. Cells were detached using a cell scraper, pelleted by centrifugation at 1,000 rcf for 5 min and the pellet processed using a CAPTUREome S-Palmitoylated Protein Kit (Badrilla, UK) according to the manufacturer's protocol. Samples were resolved by electrophoresis using 4-20% SDS-polyacrylamide gels (Bio-Rad) under denaturing and reducing conditions. Proteins were then electrotransferred to a PVDF membrane (Bio-Rad). The membrane was blocked with 3% BSA and then subjected to immunoblot analysis using Anti-GTPase HRAS antibody (ab97488) (Abcam), Calnexin Antibody (2433S) (Cell Signaling Technology), Gα(i) Antibody (5290S) (Cell Signaling Technology), SNAP25 Antibody (5308S) (Cell Signaling Technology), Flotillin-2 Antibody (3436S) (Cell Signaling Technology), CD44 Antibody (3570S) (Cell Signaling Technology), Lyric/Metadherin Antibody (14065S) (Cell Signaling Technology), Flotillin-1 Antibody (3253S) (Cell Signaling Technology) and secondary goat anti-rabbit IgG-HRP (sc-2030) (Santa Cruz Biotechnology) or goat anti-mouse IgG HRP (ThermoFisher). Chemiluminescent detection was performed by using SuperSignal West Pico PLUS chemiluminescent substrate (ThermoFisher) according to the manufacturer's instructions.
(§1) Assays were performed in 3 biological replicates. Each replicate involved the analysis of 4 to 5 conditions side-by-side. Western blots were analyzed using ImageJ^1. The intensity of the protein band in each cleaved bound fraction (palmitoylated protein fraction) was normalized to the intensity of the corresponding input fraction (total protein fraction). The values within individual S 4 replicates were normalized to the control or vehicle condition and reported as means±SD. An unpaired t test was performed to determine the significance between means.

GAP43 = target: T2, GAP43 (Homo sapiens, UniProt P17677); experiment: Acyl resin-assisted capture detection of GAP43 palmitoylation in INCL lymphoblasts; details: 0.05 μmol/10^7 cells, 24 h
T2 construct: Western blot detection of endogenous GAP43 in acyl resin-assisted capture fractions; host or cells: INCL human lymphoblasts
T2 sequence (P17677 1-238): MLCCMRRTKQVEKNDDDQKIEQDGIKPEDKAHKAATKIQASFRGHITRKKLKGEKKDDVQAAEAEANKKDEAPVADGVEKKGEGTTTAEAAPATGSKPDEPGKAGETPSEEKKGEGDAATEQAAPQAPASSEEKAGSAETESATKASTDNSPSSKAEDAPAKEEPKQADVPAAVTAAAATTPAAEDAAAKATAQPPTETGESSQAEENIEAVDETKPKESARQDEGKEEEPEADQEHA
Procedure: INCL Lymphoblasts were adjusted to 1,000,000 cells/mL in 20 mL of OptiMem Media. Stock solutions of compounds were prepared in DMSO as before and diluted to the indicated final concentration in the cell suspension. […] Cells were pelleted by centrifugation at 1,000 rcf for 5 min and the pellet processed using a CAPTUREome S-Palmitoylated Protein Kit (Badrilla, UK) according to the manufacturer's protocol. Samples were resolved by electrophoresis using 4-20% SDS-polyacrylamide gels (Bio-Rad) under denaturing and reducing conditions. Proteins were then electrotransferred to a PVDF membrane (Bio-Rad). The membrane was blocked with 3% BSA and then subjected to immunoblot analysis using GAP-43 (B-5) Antibody (sc-17790) (Santa Cruz Biotechnology) and secondary antibody goat anti-mouse IgG HRP (ThermoFisher). Chemiluminescent detection was performed by using SuperSignal West Pico PLUS chemiluminescent substrate (ThermoFisher) according to the manufacturer's instructions.
as §1

EGFP-HRas = target: T3, EGFP-HRas (Homo sapiens, UniProt P01112); experiment: Live-cell imaging of EGFP-HRas localization in HeLa cells; details: HeLa cells, 1.25 μmol/10^7 cells, 20 min
T3 construct: host or cells: HeLa
Procedure: Imaging was performed on an Axio Observer Z1 inverted microscope (Carl Zeiss Microscopy Gmb, Germany) with Yokogawa CSU-X1 spinning disk confocal unit using a 63×, 1.4 NA oil immersion or 20×, 0.8 NA objective to an ORCA-Flash4.0 V2 Digital CMOS camera (Hamamatsu, Japan). For live cell imaging, an incubation chamber with temperature and CO2 controllers (World Precision Instruments) was utilized. Fluorophores were excited with s diode laser (488 nm; 30 mW). Images were acquired using Zen Blue software (Carl Zeiss) and processed using Image J.^1
HeLa cells were plated at 40,000 cells/well in an 8-well Lab-Tek chamber slide (ThermoFisher) and allowed to adhere overnight. Cells were transfected with mEGFP-HRas or mEGFP-KRas4b using Lipofectamine 2000 (ThermoFisher) according to the manufacturer's protocol. 50 mM stocks of compounds 1 and 2 were prepared by dissolving the solid compound in DMSO containing 100 mM tris(2-S 3 carboxyethyl)phosphine hydrochloride (TCEP) as a preservative. From these stocks, a solution of 200 μM [1 or 2] (with 400 μM TCEP), or 400 μM TCEP was prepared in OptiMEM media. Before imaging, cells were exchanged into OptiMEM media. The diluted solutions were added to the indicated final concentration within individual wells of the chamber slide and cells imaged while maintaining 37° C., 5% CO2 in the incubation chamber. Images were acquired in 6 different locations across a minimum of 2 independent experiments. […] An unpaired t test was performed to determine the significance of the means before and after treatment.

T1 sequence (P01112 whole entry): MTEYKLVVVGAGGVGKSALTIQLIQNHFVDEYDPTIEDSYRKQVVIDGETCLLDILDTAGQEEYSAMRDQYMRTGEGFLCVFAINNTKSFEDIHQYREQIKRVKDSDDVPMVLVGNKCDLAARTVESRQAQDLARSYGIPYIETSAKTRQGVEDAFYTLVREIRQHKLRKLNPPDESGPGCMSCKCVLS
T3 sequence (P01112 1-186 limits assumed): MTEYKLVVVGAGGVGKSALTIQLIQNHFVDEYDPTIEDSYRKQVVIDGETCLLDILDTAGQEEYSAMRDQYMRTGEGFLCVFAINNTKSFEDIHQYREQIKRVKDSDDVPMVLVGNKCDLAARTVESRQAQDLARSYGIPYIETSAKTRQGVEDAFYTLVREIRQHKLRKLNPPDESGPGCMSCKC

SMILES	depalmitoylation of HRas by PB alone (endogenous HRas; HeLa cells treated with PB, without 1)	depalmitoylation of HRas (endogenous HRas)	level of GAP43 palmitoylation (GAP43)	EGFP-HRas localization at the plasma membrane (fluorescence) (EGFP-HRas)
CCCCCCCCCC[C@@H]1C(=O)O[C@H]1CCc1ccc(OC)c(OC)c1 [PB, palmostatin B, reference compound]	no significant depalmitoylation	–	–	–
Cl.O=C(O)CCP(CCC(=O)O)CCC(=O)O [TCEP, tris(2-carboxyethyl)phosphine hydrochloride, reference compound]	–	no significant depalmitoylation	did not result in a significant change	no change in fluorescence localization
CCCCCCCCNC(=O)[C@@H](N)CO [compound 2, H2N-L-Ser-Oct, reference compound]	–	no significant depalmitoylation	did not result in a significant change	no change in fluorescence localization
